Assay results: US8288374B2, “Medicinal composition containing benzo[a]phenoxazine compound as the active ingredient for prevention or treatment of protozoal disease” (Hoshi University, priority 2008, dated 2012)
Values after ≈ are worked out from the molar mass of the structure shown. Read-outs that look alike come from different tables or passages of the source.

Assays:
Assay type in all cases: cell-based
[1] = test system: Trypanosoma brucei rhodesiense (STIB 900 strain); test: African trypanosome protozoa growth inhibition screening test
Description: In the present experiment, protozoa of Tripanosoma brucei rhodensiense (STIB 900 Strain), a trypomastigote living in blood stream, was used. The medium used in the experiment was a MEM medium which was sterilized with a filter and supplemented with 25 mM N-2-hydroxyeihylpiperazine-2-ethansulfonic acid (HEPES), 1 g/L glucose, 1% MEM non-essential amino acid, 0.2 mM 2-mercaptoethanol, 2 mM sodium pyruvate, 0.1 mM hypoxanthine, and 15% heat-treated horse serum. The protozoa was cultured in an atmosphere of CO2 concentration 5%, at a temperature of 37° C.
The compounds of the present invention to be used in the present test and the positive control drug (melarsoprol) were dissolved in dimethylsulfoxide (DMSO) to make a test solution of a predetermined concentration.
A medium containing 8×10^3 protozoa, and a test solution containing a drug of a predetermined concentration of a drug-free DMSO were added to wells of a 96-well culture plate, and subsequently, medium was added so that the amount in each well becomes 100 μL. Test solutions were taken by duplicates.
(§1) After culturing the culture plate for 72 hours in an incubator, growth inhibition activity was tested. Test was conducted as follows. 10 μL of Alamar Blue aqueous solution was added to each well, and the resultant was further cultured for 2 hours. Next, the culture plate was placed on a fluorescent micro-plate reader (Spectramax Gemeni XS; US Molecular Device), radiated at an excited wavelength of 536 nm. Fluorescent intensity was measured at 588 nm, to calculate the trypanosome protozoa infected rate of the test solution added-group, and of the control group.
(§2) Growth inhibition rate (%)={1−(b−a)/(c−a)}×100 • a: early infection rate • b: infection rate when test solution was added • c: infection rate of the control

[2] = test system: Rat L6 cells; test: Growth inhibition test of rat L6 cells
Description: Rat derived-L6 cells (rat skeletal myoblast cell) were used. A medium, RPMI1640 medium was supplemented so that L-glutamin (200 mM) is 1%, and fetal bovine serum 10%, and the medium was cultured under CO2 concentration 5%, at 37° C.
The compounds of the present invention and the control drugs to be used in the test were dissolved in DMSO, to make a test solution of a predetermined concentration.
Pre-culture was conducted and medium containing cells which have entered the logarithmic growth phase was taken to wells of a 96-well culture plate. Then, a test solution containing drug of a predetermined concentration or a drug-free DMSO was added. Test solutions were taken by duplicates.
Culture plate was cultured for 72 hours in an incubator, to test the growth inhibition activity. Test was conducted as follows. 10 μL of Alamar Blue aqueous solution was added to each well, and the resultant was further cultured for 2 hours. Next, the culture plate was placed on a fluorescent micro-plate reader (Spectramax Gemeni XS; US Molecular Device), radiated at an excited wavelength of 536 nm. Fluorescent intensity was measured at 588 nm, and residual rate of L6 cells of the test solution added group, and that of the control was calculated.
Growth inhibition rate (%)={(C−A)/(B−A)}×100 • A: Primary cell count • B: cell count of control, 3 days after • C: cell count of wells added with a sample, 3 days after 4. Determination of Drug Efficacy Against Chloroquine Resistant-Plasmodium

[3] = test system: Leishmania donovani (MHOM/ET/67/L82 strain); test: Leishmania protozoa growth inhibition screening test
Description: In the present experiment, Leishmania donovani (MHOM/ET/67/L82 strain) was used. Protozoa was subcultured in Syrian Golden hamster, from which an amastigote was obtained. In the experiment, SM medium supplemented with 10% heat-treated bovine fetal serum was used, which was adjusted to pH 5.4, and cultured in an atmosphere of 5% CO2 concentration, at 37° C.
The compounds of the present invention to be used in the present test and the positive control drug (miltefosine) were dissolved in DMSO to make a test solution of a predetermined concentration.
After adding a medium containing a predetermined number of protozoa to wells of a 96-well culture'plate and pre-treating, concentration of the amastigote was measured with CASY cell analysis system (Scharfe, Germany). Then, test solution containing a drug of a predetermined concentration or a drug-free DMSO was added. Test solutions were taken by duplicates.
as §1, with “and infection rate of leishmania” for “to calculate the trypanosome”, “protozoa” for “protozoa infected rate”, “added group” for “added-group,”, “and” for “and of the”, “was calculated.” for “group.”
as §2

[4] = Table 6, unit inferred, read-out: Trypanosoma brucei rhod.
[5] = Table 2, unit inferred, 72 hours, read-out: Cytoxicity L6
[6] = Table 6, unit inferred, read-out: Leishmania donovani

CCN(CC)c1ccc2nc3c4ccccc4c(=Nc4ccc5ccccc5n4)cc-3oc2c1 [Compound 1H, N,N-Diethyl-5-(quinolin-2-ylimino)-5H-benzo[a]phenoxazin-9-amine]
EC50 ([1]; Table 5, 72 hours, Alamar Blue, read-out: 50% Growth inhibition concentration Trypanosoma brucei rhod.): 4.6 µg/mL (≈ 10.3 µM) | EC50 ([2]; Table 1, 72 hours, Alamar Blue, read-out: 50% Growth inhibition concentration Cytoxicity L6): 30.1 µg/mL (≈ 67.8 µM) | EC50 ([3]; Leishmania donovani, Table 5, amastigotes, 72 hours, Alamar Blue, read-out: 50% Growth inhibition concentration Leishmania donovani): 1.25 µg/mL (≈ 2.81 µM)

CCN(CCNS(C)(=O)=O)c1cc(C)c2nc3c4ccccc4c(=Nc4ccncc4)cc-3oc2c1 [Compound 1R, N-Ethyl-N-(2-methansulfonamidylethyl)-11-methyl-5-(pyridine-4-ylimino)-5H-benzo[a]phenoxazin-9-amine]
EC50 [1, 4]: 5.34 µg/mL (≈ 10.7 µM) | EC50 [2, 5]: 7.97 µg/mL (≈ 15.9 µM) | EC50 [3, 6]: 3.92 µg/mL (≈ 7.81 µM)

CCN(CCNS(C)(=O)=O)c1cc(C)c2nc3c4ccccc4c(=Nc4ccccn4)cc-3oc2c1 [Compound 1S, N-Ethyl-N-(2-methansulfonamidylethyl)-11-methyl-5-(pyridine-2-ylimino)-5H-benzo[a]phenoxazin-9-amine]
EC50 [1, 4]: 0.714 µg/mL (≈ 1.42 µM) | EC50 [2, 5]: 0.307 µg/mL (≈ 0.612 µM) | EC50 [3, 6]: 2.09 µg/mL (≈ 4.17 µM)
